Data reported in a melting point compilation (Tetko et al.; mined from patent text by program, amines drawn as free bases though some values may be those of a salt).

| SMILES | melting point [°C] |
| --- | --- |
| CCS(=O)(=O)Nc1ccc(F)cc1Br | 79 to 81 |
| CNC(=O)Cn1c(-c2ccc(Cl)cc2)nc2cccnc21 | 238 |
| CC(=O)OC[C@H]1CCn2c(cc3ccccc32)C1 | 63 to 64 |
| CC(=O)OCC1OC(O)(c2ccc(Cl)cc2)C(OC(C)=O)C(OC(C)=O)C1OC(C)=O (centres undefined) | 124 |
| CCOc1c(CN2CCCCC2)c2c(c3c1OC(C)(C)C3)C(c1cccc(N(S(C)(=O)=O)S(C)(=O)=O)c1)=NC(C)(C)C2 | 118 to 119 |
| CCOC(=O)C(=O)CC(=O)c1cn(Cc2ccc(Cl)cc2)c2ccccc2c1=O | 174 to 176 |
| Fc1cc(F)cc(NC(=S)c2ccccn2)c1 | 140 to 142 |
| COc1cc2c(cc1C(F)(F)F)N(C(=O)Nc1ccc(OCc3ccncc3)nc1)CC2 | 187 to 189 |
| Cc1cc([C@H]2[C@H](C(=O)Nc3ccc(F)c(F)c3)C2(C)C)ccc1S(N)(=O)=O (relative stereo) | 195 to 198 |
| c1csc(NCCc2c[nH]cn2)n1 | 198 to 199 |
| Nc1nc(N)c2c(CCc3ccc(C(=O)N[C@@H](CCC(=O)O)C(=O)O)cc3)cnc-2[nH]1 | 258 to 262 |
| COC(=O)[C@H](Cc1ccccc1)NC(=O)[C@H](Cc1ccccc1)NC(=S)Cc1ccc(C)cc1 | 115 to 117 |
| O=C(O)CCC(=O)OC1CCCN(C(=O)Cn2c(=O)sc3ccc(Cl)cc32)C1 (centres undefined) | 131 to 133 |
| CC1=C(c2ccncc2)CCC(=O)N1 | 175 to 177 |
| CCCCN(CCCC)c1ccc(C=Cc2ccc(C=CC3=C(C#N)C(=C(C#N)C#N)OC3(c3ccccc3)C(F)(F)F)s2)c(OC)c1 (centres undefined) | 203 to 204 |
| O=C1C=C(c2ccc(O)cc2)S(=O)(=O)c2ccccc21 | 222 to 224 |
| Cc1cccc(-c2n[nH]cc2-c2ccnc(-c3ccc(C(=O)NC4CCOCC4)cc3)c2)n1 | 148 |
| CCN(CC)c1cc(=S)ss1 | 93 |
| O=C1OCCC1NC(c1ccccc1)(c1ccccc1)c1ccccc1 (centres undefined) | 164 to 166 |
| CCOC(=O)Nc1ccccc1NS(=O)(=O)c1ccc(OC)cc1 | 118 to 119 |
| COc1cc(-n2ccc(C)n2)ccc1C(=O)N1Cc2ccc(CN(C)C)n2Cc2ccccc21 | 196 to 198 |
| COc1cc(F)ccc1-c1ccc(S(=O)(=O)N2c3ccccc3CC2C(=O)NCCOc2ccc(C(=O)O)c(F)c2)cc1 (centres undefined) | 88 to 95 |
| Cn1c2c(ccc1=O)C(NCCc1ccc(Cl)cc1)CCC2 (centres undefined) | 110 to 112 |
| NCCc1cccc(N2C(=O)N(c3ccc(Cl)cc3Cl)Cc3cnc(Nc4ccccc4)nc32)c1 | 131 to 135 |
| O=C(Nc1cccc(C(F)(F)F)c1)c1coc2cc(Oc3cc(CO)ncn3)ccc12 | 181 to 182 |

| SMILES | melting point [°C] |
| --- | --- |
| CCNC(=O)Nc1ccc(-c2sc3c(c2CN(C)CCC(=O)NCCOC)c(=O)n(-c2ccccc2)c(=O)n3Cc2c(F)cccc2F)cc1 | 240 to 244 |
| COc1ccc2ncc(C#N)c(Nc3ccc(Cl)cc3F)c2c1 | > 250 |
| C=C(COC1CC2C3CCC4=CC(=O)C=CC4(C)C3(F)C(O)CC2(C)C1(O)C(=O)CCl)c1ccccc1 (centres undefined) | 212 to 214 |
| CCCC(=O)c1cnc2c(OC)cccc2c1Nc1ccc(O)cc1 | 270 to 272 |
| CC(c1ccccc1)N(C=O)CC#N (single isomer, unassigned; (+)) | 78.9 |
| Brc1cnn(Cc2ccccc2)c1 | 51 to 52 |
| COc1cc(C(=O)NCc2ccccc2)cc(NC(=O)c2ccccc2)n1 | 132 to 133 |
| CCOC(COc1cccc2c1OCCO2)OCC | 73.1 |
| Nc1c([N+](=O)[O-])cc(C(F)(F)F)cc1[N+](=O)[O-] | 142 to 144 |
| CN1Cc2c(C(=O)NN)ncn2-c2ccccc2C1=O | 312 to 313 |
| O=S(CCCCCOc1ccc(C2=C(c3ccccc3)CCCc3cc(O)ccc32)cc1)Cc1ccccc1 (centres undefined) | 196 |
| N#Cc1ccc(N2CCC(F)(F)C2)c2ccccc12 | 68 to 69 |
| COc1ccc2c(c1)CCC1C2CCC2(C)C(=O)CC(C)(C)C12 (centres undefined) | 145 to 148 |
| NS(=O)(=O)c1ccc(-c2cc(-c3c[nH]nc3-c3ccccn3)ccc2F)cc1 | 128 |
| O=c1c2c(N3CCNCC3)cc(Cl)cc2n(Cc2ccccc2)c(=O)n1Cc1ccccc1F | 98 to 109 |
| COc1cccc(OC)c1C(=O)Nc1nnc(-c2cccc(O)c2)s1 | 243 to 245 |
| OCC1OC(n2c(Cl)nc3cc(Cl)c(Cl)cc32)C(O)C1F (centres undefined) | 238 |
| CC(C#Cc1cccc(C2=NCC(c3ccccc3)O2)c1)N(O)C(N)=O (centres undefined) | 145 to 146 |
| S=C(NCCCC1(Cl)CC=CS1)Nc1ccccn1 (centres undefined) | 116 to 122 |
| CCCc1nc2c(N)nc(C)c(C)c2n1CCCCS(=O)(=O)N(C)C | 127 to 128 |
| CN(C(=O)CN(C(=O)CN1C(=O)c2ccccc2C1=O)c1ccccc1Cl)c1ccccc1 | 168 |
| CC(C)c1c(C=C(Br)Br)c(-c2ccc(F)cc2)n2ccccc12 | 118 to 120 |
| CCCCCCCCCCCCCCOc1ccc2c(C)cc(=O)oc2c1 | 61 to 62 |
| O=C(O)CCOc1ccc(CCNC(=O)C2Cc3ccccc3N2S(=O)(=O)c2ccc(-c3cccc(C(F)(F)F)c3)cc2)cc1 (centres undefined) | 70 |
